Assay results from patent US8722626B2, “Method for controlling fibrosis and other pathological deposits in tissues comprising administering a GHRP-6 composition” (Centro de Ingenieria Genetica y Biotecnologia, priority 2006, dated 2014).

Tests used:
[1] = system: hepatic fibrosis in male Wistar rats (bile duct ligation); test: Reverting hepatic fibrosis induced by ligation of the common bile duct in rats (Example 1); type: in vivo, rat; design: SODt (oxidative stress marker) / Catalase (oxidative stress marker) / HPT (oxidative stress marker) / MDA (oxidative stress marker): unit not given here; settings: for Grade 0 (null) hepatic fibrosis, animals per group / Grade 1 (moderate) hepatic fibrosis, animals per group / Grade 2 (limited) hepatic fibrosis, animals per group / Grade 3 (severe) hepatic fibrosis, animals per group / Grade 4 (very severe) hepatic fibrosis, animals per group: three weeks; for GGT serum level / GOT serum level / GPT serum level / Content of OH—P (hydroxiproline) in liver: end of three weeks of treatment; for Catalase (oxidative stress marker) / HPT (oxidative stress marker) / MDA (oxidative stress marker) / SODt (oxidative stress marker): liver samples, end of third week of treatment
Protocol: The present experiment was conducted to evaluate the effect of the GHRP-6-based pharmaceutical composition on reverting the hepatic fibrosis in rats. Hepatic fibrosis was induced in male Wistar rats of 250 g of average body weight by ligating the external bile duct. For this purpose, rats were anesthetized with a ketamine/xylazine combination and subjected to laparotomy to expose the common bile duct. The duct was double-ligated with chromium catgut 4-0. After surgery, animals were randomly distributed into 3 experimental groups of 20 rats each: (1) Control placebo group, receiving physiological saline solution, (2) Group receiving the GHRP-6 at a 100 μg/kg dosage, and (3) Group receiving the GHRP-6 at a 400 μg/kg dosage. Treatments were daily administered during three weeks after inducing the fibrosis of the liver parenchyma. All the treatments were started three weeks after the appearance of fibrosis. The follow up of the hepatic damage was conducted by weekly ultrasound examinations of the projection area of this organ, the progress of serum levels of GOT and GPT transaminases, gamma glutamyl transferase (GGT) levels and the volume of ascitis. Treatments with GHRP-6 or placebo were applied by the intraperitoneal route once daily. When treatments concluded, animals were sacrificed and blood serum and the liver were collected. Liver fragments were fixed in formalin neutral and processed by hematoxylin/eosin staining, or by Masson's trichromic staining, to evaluate the general damage and the severity of fibrotic indurations. Other fragments of liver tissues were stored at −70° C. until processing to determine the content of hydroxiproline by acid hydrolysis in 1N HCl, and also the intrahepatic levels of redox metabolism markers. Biochemical determinations were carried out by calculating the total protein content by the Bradford's method.

[2] = system: transgenic mice over-expressing one mutated form of the NOTCH 3 gene; test: Dementia of vascular origin: transgenic mice over-expressing mutated NOTCH 3 gene (CADASIL model, Example 6); type: in vivo, mouse; design: SODt (oxidative stress marker) / Cabalase (oxidative stress marker) / HPT (oxidative stress marker) / MDA (oxidative stress marker): unit not given here; settings: 100 μg/kg i.p. twice a week, 16 weeks
Protocol: This experiment was conducted to evaluate the efficacy of pharmaceutical compositions indistinctly containing one of the peptides GHRP-6, GHRP-2, hexarelin or ghrelin on the central neurofunctional involution process in transgenic mice over-expressing one mutated form of the NOTCH 3 gene in blood vessel smooth muscle cells. These animals develop in terms of months an arteriopathy similar to that of the CASADIL disease, referred to the descriptive memory, and is occurring as one of the main causes of vascular dementia. In these animals, vascular lesions also include retinal-cerebral, cerebral and cochlear vasculopathies. The beta-amiloid material present in the brain and blood vessels, the deposit of osmophilic granular material in brain and meningeal artery walls and their reduced lumen are histopathologically relevant. White-pale zones, microinfarction and hemorrhagic foci zones appear in the brain and its main nervous trunks.
Eighteen- to twenty-months-old male mice were employed when evidenced the symptoms of the disease. The animals were randomly assigned to the following experimental treatment groups: • A—Placebo group receiving the physiological saline solution. • B—Group receiving GHRP-6 at a 100 μg/kg dosage. • C—Group receiving GHRP-2 at a 100 μg/kg dosage. • D—Group receiving Ghrelin at a 100 μg/kg dosage. • E—Group receiving Hexarelin at a 100 μg/kg dosage.
Treatments were applied twice a week during 16 weeks by intraperitoneal route. When treatments concluded, autopsy studies were conducted irrespective of the clinical improvement evidenced in a great number of animals treated. Brain tissue samples including meningeal tissues were collected for biochemical and histopathological determinations. The animals received anesthesia overdosed and subjected to intra-cardiac perfusion with cold physiological saline solution to wash off the blood present in the encephala. The encephala were extracted and one encephalon was frozen in dry-ice and the other was fixed in 4% para-formaldehyde neutral. Samples were cryo-sliced at 10 μm and slices were stained with hematoxylin/eosin, Congo Red, or incubated with an antibody specific for the beta-amiloid protein. Morphometric procedures were carried out by microscopic imaging capture by a camera connected to the microscope, and the images were analyzed with the DIGIPAT software.
Number of fibrillar deposits of beta-amiloid in blood vessels.
Number of sub-cortical infarctions.
Number of sub-cortical hemorrhages.
Brain concentration of myo-inositol as indicator of aging and brain metabolism deterioration (μmol/g of tissue).
Brain oxidative stress markers.

[3] = Dosage I: 100 μg/kg i.p. once daily, N = 16
[4] = Dosage I: 100 μg/kg i.p. once daily
[5] = Dosage II: 400 μg/kg i.p. once daily, N = 20
[6] = Dosage II: 400 μg/kg i.p. once daily

Which results are given for GHRP-6?
Grade 0 (null) hepatic fibrosis, animals per group [1, 3]: 5; Grade 1 (moderate) hepatic fibrosis, animals per group [1, 3]: 9; Grade 2 (limited) hepatic fibrosis, animals per group [1, 3]: 2; Grade 3 (severe) hepatic fibrosis, animals per group [1, 3]: 0; Grade 4 (very severe) hepatic fibrosis, animals per group [1, 3]: 0; GGT serum level [1, 4]: 71.53 ± 22.14 U/I; GOT serum level [1, 4]: 61.58 ± 16.10 IU/I; GPT serum level [1, 4]: 81.71 ± 30.90 IU/I; Content of OH—P (hydroxiproline) in liver [1, 3]: 56.71 ± 8.11 μg/g of total proteins; Grade 0 (null) hepatic fibrosis, animals per group [1, 5]: 8; Grade 1 (moderate) hepatic fibrosis, animals per group [1, 5]: 11; Grade 2 (limited) hepatic fibrosis, animals per group [1, 5]: 1; Grade 3 (severe) hepatic fibrosis, animals per group [1, 5]: 0; Grade 4 (very severe) hepatic fibrosis, animals per group [1, 5]: 0; GGT serum level [1, 6]: 25.56 ± 8.63 U/I; GOT serum level [1, 6]: 30.41 ± 6.11 IU/I; GPT serum level [1, 6]: 60.64 ± 19.87 IU/I; Content of OH—P (hydroxiproline) in liver [1, 5]: 16.15 ± 1.025 μg/g of total proteins; Deposit of collagenous and extracellular materials in liver parenchyma (overall result) ([1]; ligation of the common bile duct, morphological and biochemical data): eradicate and control the deposit of collagenous and extracellular materials in liver parenchyma; Catalase (oxidative stress marker) ([1]; Dosage I: 100 μg/kg): 68.50 ± 12.73; HPT (oxidative stress marker) ([1]; Dosage I: 100 μg/kg): 43.06 ± 1.83; MDA (oxidative stress marker) ([1]; Dosage I: 100 μg/kg): 0.14 ± 0.02; SODt (oxidative stress marker) ([1]; Dosage I: 100 μg/kg): 11058.07 ± 744.61; Catalase (oxidative stress marker) ([1]; Dosage II: 400 μg/kg): 31.50 ± 4.3; HPT (oxidative stress marker) ([1]; Dosage II: 400 μg/kg): 21.16 ± 1.71; MDA (oxidative stress marker) ([1]; Dosage II: 400 μg/kg): 0.08 ± 0.01; SODt (oxidative stress marker) ([1]; Dosage II: 400 μg/kg): 21029.87 ± 498.28; Cabalase (oxidative stress marker) ([2]; brain): 51.5 ± 16.01; Cerebral Myo-inositol ([2]; brain): 12.36 ± 5.64 μmol/g of tissue; HPT (oxidative stress marker) ([2]; brain): 101.7 ± 22.09; MDA (oxidative stress marker) ([2]; brain): 0.23 ± 0.05; SODt (oxidative stress marker) ([2]; brain): 12327.31 ± 55.1; No. of blood vessels positive to Congo Red ([2]; cerebral tissues): 16.31 ± 5.33; No. of blood vessels positive to Nissl ([2]; cerebral tissues): 14.22 ± 8.15; No. of hemorrhagic foci. ([2]; cerebral tissues): 19.05 ± 5.14; No. of subcortical infarctions. ([2]; cerebral tissues): 26.79 ± 4.19
